According to US10023602B2, “Hamamelitannin analogues and uses thereof” (Universiteit Gent, priority 2014, dated 2018):

What was measured:
[1] = system: methicillin resistant S. aureus Mu50 strain (S. aureus ATCC700699) biofilm; experiment: Biofilm susceptibility to vancomycin, combination treatment regimen (mature biofilm treated with compound plus vancomycin); assay type: cell-based; details: for Combin. (100 μM): percentage Colony Forming Units (CFU's) per biofilm: compound 100 μM together with VAN 20 μg/ml on mature biofilm; for Combin. (100 μM): percentage Colony Forming Units (CFU's) per biofilm / Combin. (25 μM): percentage Colony Forming Units (CFU's) per biofilm: compared to the untreated (negative) control; for EC50: concentration needed to get 50% killing compared to antibiotic alone (VAN 20 μg/ml) and complete killing, read-out: Combin. (EC50); for Combin. (25 μM): percentage Colony Forming Units (CFU's) per biofilm: compound 25 μM together with VAN 20 μg/ml on mature biofilm
Procedure: (§1) The compounds were evaluated for their effect on biofilm susceptibility both under pre-treatment and combination treatment regimens. In the pre-treatment regimen, a methicillin resistant S. aureus Mu50 strain (S. aureus ATCC700699) was allowed to form biofilms in the presence of the compounds after which the biofilm was treated with vancomycin (20 μg/ml). In the combination treatment regimen, S. aureus Mu50 was allowed to form a mature biofilm after which it was treated with a combination of a compound and vancomycin. In brief, 100 μl of a standardized inoculum (10^8 CFU/ml) was placed in the wells of a round-bottom 96-well microtiter plate. The cells were allowed to adhere to the plate in the absence (combined treatment) or presence (pre-treatment) of the compounds (0.1-250 μM) for 4 h at 37° C. After this adhesion step, non-adhered cells were removed, the wells were rinsed and fresh medium with or without the compounds was added. The plates were incubated for an additional 20 h at 37° C. After this, the medium was removed, biofilms were rinsed with physiological saline and vancomycin (20 μg/ml) was added alone (pre-treatment) or with the compounds (combined treatment, 0.1-250 μM). Plates were placed at 37° C. for 24 h after which medium was removed, wells were rinsed and the surviving cells in each condition were collected. The number of surviving cells under each condition was compared to vancomycin treatment alone and was assessed by conventional plating. The REF compound (hamamelitannin) was also observed for its effect on biofilm susceptibility towards other antibiotics (incl. vancomycin, cefoxitin, tobramycin, cefazolin, cefalonium, daptomycin, linezolide and cephalexin). Biofilms were formed as described above and were treated with the antibiotics alone or in combination with the REF compound (250 μM). The number of surviving cells under each condition was compared to the untreated control biofilm and was assessed by conventional plating.

[2] = system: methicillin resistant S. aureus Mu50 strain (S. aureus ATCC700699) biofilm; experiment: Biofilm susceptibility to vancomycin, pre-treatment regimen (biofilm formed in presence of compound, then vancomycin); assay type: cell-based; details: for Pretreat (100 μM): percentage Colony Forming Units (CFU's) per biofilm: compound 100 μM during biofilm formation; for Pretreat (100 μM): percentage Colony Forming Units (CFU's) per biofilm / Pretreat. (25 μM): percentage Colony Forming Units (CFU's) per biofilm: then VAN 20 μg/ml, compared to the untreated (negative) control; for EC50: concentration needed to get 50% killing compared to antibiotic alone (VAN 20 μg/ml) and complete killing, read-out: Pretreat. (EC50); for Pretreat. (25 μM): percentage Colony Forming Units (CFU's) per biofilm: compound 25 μM during biofilm formation
Procedure: as §1

Compound | Combin. (100 μM): percentage Colony Forming Units (CFU's) per biofilm [1] [percentage] | EC50 [1] [µM] | Pretreat (100 μM): percentage Colony Forming Units (CFU's) per biofilm [2] [percentage] | EC50 [2] [µM] | Combin. (25 μM): percentage Colony Forming Units (CFU's) per biofilm [1] [percentage] | Pretreat. (25 μM): percentage Colony Forming Units (CFU's) per biofilm [2] [percentage]
O=C(NC[C@H]1OC[C@@](O)(CN2C(=O)c3ccccc3C2=O)[C@@H]1O)c1ccccc1Cl [compound 231, 2-chloro-N-(((2R,3R,4S)-4-((1,3-dioxoisoindolin-2-yl)methyl)-3,4-dihydroxytetrahydrofuran-2-yl)methyl)benzamide] | 28.85 | 39 | 8.18 | 2.63 |  | 
O=C(NC[C@]1(O)CO[C@H](CNC(=O)c2ccccc2Cl)[C@H]1O)c1ccncc1 [compound 239, N-(((3S,4R,5R)-5-((2-chlorobenzamido)methyl)-3,4-dihydroxytetrahydrofuran-3-yl)methyl)isonicotinamide] |  |  |  |  | 58.76 | 49.98
O=C(NC[C@]1(O)CO[C@H](CNC(=O)c2ccccc2Cl)[C@H]1O)c1ccccc1 [compound 171, N-(((2R,3R,4S)-4-(benzamidomethyl)-3,4-dihydroxytetrahydrofuran-2-yl)methyl)-2-chlorobenzamide] | 7.776 | 7.98 | 11.56 | 0.389 |  | 
O=C(Cc1ccccc1)NC[C@H]1OC[C@@](O)(CNC(=O)c2ccccc2)[C@@H]1O [compound 189, N-(((3S,4R,5R)-3,4-dihydroxy-5-((2-phenylacetamido)methyl)tetrahydrofuran-3-yl)methyl)benzamide] | 58.95 |  | 59.77 |  |  | 
O=C(NC[C@]1(O)CO[C@H](CNC(=O)c2ccccc2Cl)[C@H]1O)c1cncnc1 [compound 248, N-(((3S,4R,5R)-5-((2-chlorobenzamido)methyl)-3,4-dihydroxytetrahydrofuran-3-yl)methyl)pyrimidine-5-carboxamide] |  |  |  |  | 65.41 | 64.01
CN(C)c1ccc(C(=O)NC[C@H]2OC[C@@](O)(CNC(=O)c3ccccc3)[C@@H]2O)cc1 [compound 156, N-(((2R,3R,4S)-4-(benzamidomethyl)-3,4-dihydroxytetrahydrofuran-2-yl)methyl)-4-(dimethylamino)benzamide] | 11.27 |  | 16.58 |  |  | 
O=C(NC[C@]1(O)CO[C@H](CN2C(=O)c3ccccc3C2=O)[C@H]1O)c1ccc(-c2ccccc2)cc1 [compound 254, N-(((3S,4R,5R)-5-((1,3-dioxoisoindolin-2-yl)methyl)-3,4-dihydroxytetrahydrofuran-3-yl)methyl)-[1,1′-biphenyl]-4-carboxamide] | 30.44 | 57.1 | 3.52 | 4.79 |  | 
Cc1ccc(C(=O)NC[C@H]2OC[C@@](O)(CNC(=O)c3ccccc3)[C@@H]2O)cc1 [compound 151, N-(((2R,3R,4S)-4-(benzamidomethyl)-3,4-dihydroxytetrahydrofuran-2-yl)methyl)-4-methylbenzamide] | 24.59 |  | 22.36 |  |  | 
O=C(NC[C@]1(O)CO[C@H](CNC(=O)c2ccccc2Cl)[C@H]1O)c1ccc(C(F)(F)F)cc1 [compound 238, 2-chloro-N-(((2R,3R,4S)-3,4-dihydroxy-4-((4-(trifluoromethyl)benzamido)methyl)tetrahydrofuran-2-yl)methyl)benzamide] |  | 75.2 |  | 84.6 | 68.51 | 45.03
CC(C)(C)C(=O)NC[C@H]1OC[C@@](O)(CNC(=O)c2ccccc2)[C@@H]1O [compound 226, N-(((3S,4R,5R)-3,4-dihydroxy-5-(pivalamidomethyl)tetrahydrofuran-3-yl)methyl)benzamide] | 28.64 |  | 50.74 |  |  | 
O=C(NC[C@]1(O)CO[C@H](CNC(=O)c2ccccc2-c2ccccc2)[C@H]1O)c1ccccc1 [compound 177, N-(((2R,3R,4S)-4-(benzamidomethyl)-3,4-dihydroxytetrahydrofuran-2-yl)methyl)-[1,1′-biphenyl]-2-carboxamide] | 13.23 |  | 15.07 |  |  | 
O=C(NC[C@]1(O)CO[C@H](CNC(=O)c2c(Cl)cccc2Cl)[C@H]1O)c1ccccc1 [compound 192, N-(((2R,3R,4S)-4-(benzamidomethyl)-3,4-dihydroxytetrahydrofuran-2-yl)methyl)-2,6-dichlorobenzamide] | 43.74 | 136 | 31.41 | 59.2 |  | 
O=C(NC[C@]1(O)CO[C@H](CNC(=O)c2ccccc2Cl)[C@H]1O)c1cccc(Cl)c1 [compound 241, 2-chloro-N-(((2R,3R,4S)-4-((3-chlorobenzamido)methyl)-3,4-dihydroxytetrahydrofuran-2-yl)methyl)benzamide] |  |  |  |  | 81.35 | 98.17
Cc1ccccc1C(=O)NC[C@]1(O)CO[C@H](CNC(=O)c2ccccc2Cl)[C@H]1O [compound 244, 2-chloro-N-(((2R,3R,4S)-3,4-dihydroxy-4-((2-methylbenzamido)methyl)tetrahydrofuran-2-yl)methyl)benzamide] |  | 124 |  | 56.4 | 54.77 | 41.07
O=C(NC[C@H]1OC(O)[C@@](O)(CNC(=O)c2cc(O)c(O)c(O)c2)[C@@H]1O)c1cc(O)c(O)c(O)c1 (stereo partly drawn) [compound 15, N,N′-(((2R,3R,4R)-3,4,5-trihydroxytetrahydrofuran-2,4-diyl)bis(methylene))bis(3,4,5-trihydroxybenzamide)] | 57.74 | 191 | 22.35 | 63.8 |  | 
O=C(NC[C@]1(O)CO[C@H](CNC(=O)c2ccccc2Cl)[C@H]1O)c1ccc(Cl)cc1 [compound 234, 2-chloro-N-(((2R,3R,4S)-4-((4-chlorobenzamido)methyl)-3,4-dihydroxytetrahydrofuran-2-yl)methyl)benzamide] |  |  |  |  | 56.96 | 61.12
